Experimental data published in patent US20030199692A1, “Propanoic acid derivatives that inhibit the binding of integrins to their receptors” (priority 1999, published 2003).

Target: T1, α4β1 integrin (Homo sapiens, UniProt P05556+P13612)
T1 construct: endogenous in cells; host or cells: Ramos cells
Experiment: Inhibition of adhesion of calcein AM-labeled Ramos cells to CS1 (fibronectin) peptide-conjugated ovalbumin
Format: cell-based
Details: for IC50: Ramos cell adhesion to CS1-conjugated ovalbumin, 30 minutes at 37° C.
Protocol: The ability of compounds of the present invention to inhibit binding is determined by a procedure in which a 26-amino acid peptide containing the CS1 sequence of fibronectin with an N-terminal Cys ([…]) was coupled to maleimide activated ovalbumin. Bovine serum albumin (BSA) and CS1 conjugated ovalbumin were coated onto 96-well polystyrene plates at 0.5 mg/ml in TBS (50 mM Tris, pH 7.5; 150 mM NaCl) at 4° C. for 16 hours. The plates were washed three times with TBS and blocked with TBS containing 3% BSA at room temperature for 4 hours. Blocked plates were washed three times in binding buffer (TBS; 1 mM MgCl2; 1 mM CaCl2; 1 mM MnCl2) prior to assay. Ramos cells fluorescently labeled with calcein AM were resuspended in binding buffer (10^7 cells/ml) and diluted 1:2 with same buffer with or without compound. The cells were added immediately to the wells (2.5×10^5 cells/well) and incubated for 30 minutes at 37° C. Following three washes with binding buffer, adherent cells were lysed and quantitated using a fluorometer. IC50 is defined as the dose required to give 50% inhibition. MS in Table 3 stands for Mass Spec. nd stands for not determined in the Tables. A stands for inhibition in Table 2, and the percent inhibition indicates the inhibition of cell adhesion when compound is included in the assay at a concentration of 100 μM. The lower the IC50 value and the greater the percentage of inhibition, the more efficient the compound is at prevention of cell adhesion.

T1 sequence (P13612 34-1032): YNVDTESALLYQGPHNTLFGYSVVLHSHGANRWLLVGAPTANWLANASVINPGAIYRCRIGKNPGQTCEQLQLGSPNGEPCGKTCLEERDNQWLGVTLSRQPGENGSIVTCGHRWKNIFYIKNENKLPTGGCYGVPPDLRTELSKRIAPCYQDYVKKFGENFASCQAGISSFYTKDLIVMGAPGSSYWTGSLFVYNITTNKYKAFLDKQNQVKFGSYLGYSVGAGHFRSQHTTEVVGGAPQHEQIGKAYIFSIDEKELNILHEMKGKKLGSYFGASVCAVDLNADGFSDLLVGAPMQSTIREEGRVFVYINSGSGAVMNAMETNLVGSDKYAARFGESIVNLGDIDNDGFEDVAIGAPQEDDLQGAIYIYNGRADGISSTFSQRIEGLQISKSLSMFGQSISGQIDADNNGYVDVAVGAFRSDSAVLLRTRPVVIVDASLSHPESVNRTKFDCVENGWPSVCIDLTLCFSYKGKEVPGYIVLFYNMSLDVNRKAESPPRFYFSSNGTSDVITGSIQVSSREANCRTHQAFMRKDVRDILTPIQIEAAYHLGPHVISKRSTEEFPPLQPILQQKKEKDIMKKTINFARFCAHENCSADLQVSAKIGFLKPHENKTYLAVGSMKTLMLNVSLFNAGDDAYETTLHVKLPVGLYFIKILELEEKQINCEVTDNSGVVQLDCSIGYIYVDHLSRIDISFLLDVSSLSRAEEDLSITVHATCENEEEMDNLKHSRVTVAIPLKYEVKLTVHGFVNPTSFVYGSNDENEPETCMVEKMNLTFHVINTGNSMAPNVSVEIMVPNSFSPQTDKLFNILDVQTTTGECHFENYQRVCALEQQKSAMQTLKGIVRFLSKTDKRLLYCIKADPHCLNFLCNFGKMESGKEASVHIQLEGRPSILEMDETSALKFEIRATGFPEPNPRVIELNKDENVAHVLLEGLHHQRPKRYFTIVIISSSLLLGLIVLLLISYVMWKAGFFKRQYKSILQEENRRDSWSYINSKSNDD
T1 sequence (P05556 21-798): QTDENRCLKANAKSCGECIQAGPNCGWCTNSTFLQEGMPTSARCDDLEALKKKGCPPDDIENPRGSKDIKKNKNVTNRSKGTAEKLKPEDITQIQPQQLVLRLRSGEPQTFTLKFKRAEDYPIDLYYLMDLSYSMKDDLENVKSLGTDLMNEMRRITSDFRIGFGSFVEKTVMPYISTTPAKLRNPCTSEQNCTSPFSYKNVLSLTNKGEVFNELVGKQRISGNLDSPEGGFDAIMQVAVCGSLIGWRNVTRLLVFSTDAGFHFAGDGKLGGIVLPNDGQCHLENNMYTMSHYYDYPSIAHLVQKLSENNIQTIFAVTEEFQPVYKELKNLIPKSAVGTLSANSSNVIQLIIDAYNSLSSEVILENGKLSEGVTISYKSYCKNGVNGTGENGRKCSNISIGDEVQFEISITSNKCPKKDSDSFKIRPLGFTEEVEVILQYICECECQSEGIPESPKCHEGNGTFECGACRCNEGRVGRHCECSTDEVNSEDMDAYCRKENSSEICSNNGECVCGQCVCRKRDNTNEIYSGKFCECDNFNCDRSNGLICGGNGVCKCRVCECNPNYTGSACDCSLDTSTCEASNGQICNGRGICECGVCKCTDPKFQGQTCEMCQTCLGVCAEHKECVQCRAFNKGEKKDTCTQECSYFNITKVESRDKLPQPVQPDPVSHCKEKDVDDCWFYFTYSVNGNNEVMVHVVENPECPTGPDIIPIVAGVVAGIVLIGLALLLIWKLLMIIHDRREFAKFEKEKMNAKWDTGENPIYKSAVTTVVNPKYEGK

Compound	IC50 (Table 4) [nM]	other results
CCCCC(C(=O)N[C@@H](CC(=O)O)c1ccccc1)n1cc(C)cc(Cc2ccccc2Cl)c1=O (stereo partly drawn) [(3S)-3-({2-[3-(2-chlorobenzyl)-5-methyl-2-oxopyridin-1(2H)-yl]hexanoyl}amino)-3-phenylpropanoic acid]	12	
CCCC[C@@H](C(=O)N[C@@H](CC(=O)O)c1ccc2c(c1)OCO2)n1cccc(C(=O)c2ccccc2)c1=O [(3S)-3-(1,3-benzodioxol-5-yl)-3-({(2S)-2-[2-oxo-3-(phenylcarbonyl)-1(2H)-pyridinyl]hexanoyl}amino)propanoic acid]		IC50 (Table 3): 550 nM
O=C(O)C[C@H](NC(=O)Cn1c(=O)n(Cc2ccccc2)c2ccccc21)c1ccc2c(c1)OCO2 [(3S)-3-(1,3-benzodioxol-5-yl)-3-({2-[2-oxo-3-(phenylmethyl)-2,3-dihydro-1H-benzimidazol-1-yl]acetyl}amino)propanoic acid]		IC50 (Table 3): 200 nM
CCCCC(C(=O)N[C@@H](CC(=O)O)c1cccc(OC(C)C)c1)n1cc(C)cc(Cc2ccccc2OC)c1=O (stereo partly drawn) [(3S)-3-(3-isopropoxyphenyl)-3-({2-[3-(2-methoxybenzyl)-5-methyl-2-oxopyridin-1(2H)-yl]hexanoyl}amino)propanoic acid]	4	
CCCCC(C(=O)N[C@@H](CC(=O)O)c1cccc(OC(C)C)c1)n1cc(C)cc(Cc2cccc(Cl)c2Cl)c1=O (stereo partly drawn) [(3S)-3-({2-[3-[(2,3-dichlorophenyl)methyl]-5-methyl-2-oxo-1(2H)-pyridinyl]hexanoyl}amino)-3-{3-[(1-methylethyl)oxy]phenyl}propanoic acid]	68	
CCCCC(C(=O)N[C@@H](CC(=O)O)c1ccc(-c2ccc(C)cc2)cc1)n1cc(C)cc(Cc2ccccc2)c1=O (stereo partly drawn) [(3S)-3-{[2-(3-benzyl-5-methyl-2-oxopyridin-1(2H)-yl)hexanoyl]amino}-3-(4′-methyl-1,1′-biphenyl-4-yl)propanoic acid]	250	
CCCCC(C(=O)N[C@@H](CC(=O)O)c1ccc2c(c1)OCO2)n1cc(Cc2ccccc2)ccc1=O (stereo partly drawn) [(3S)-3-(1,3-Benzodioxol-5-yl)-3-({2-[2-oxo-5-(phenylmethyl)-1(2H)-pyridinyl]hexanoyl}amino)propanoic acid]		IC50 (Table 3): 40 nM
CCCCC(C(=O)N[C@@H](CC(=O)O)c1ccc2cc(OC)ccc2c1)n1cc(C)cc(Cc2ccccc2)c1=O (stereo partly drawn) [(3S)-3-{[2-(3-benzyl-5-methyl-2-oxopyridin-1(2H)-yl)hexanoyl]amino}-3-(6-methoxy-2-naphthyl)propanoic acid]	40	
CCCCC(C(=O)N[C@@H](CC(=O)O)c1cccc(OC(C)C)c1)n1cc(C)cc(Cc2ccc3ccccc3c2)c1=O (stereo partly drawn) [(3S)-3-{3-[(1-methylethyl)oxy]phenyl}-3-({2-[5-methyl-3-(2-naphthalenylmethyl)-2-oxo-1(2H)-pyridinyl]hexanoyl}amino)propanoic acid]	20	
CCCCC(C(=O)N[C@@H](CC(=O)O)c1ccc(C)c(OC(C)C)c1)n1cc(C)cc(Cc2ccccc2)c1=O (stereo partly drawn) [(3S)-3-{4-methyl-3-[(1-methylethyl)oxy]phenyl}-3-({2-[5-methyl-2-oxo-3-(phenylmethyl)-1(2H)-pyridinyl]hexanoyl}amino)propanoic acid]	15	
CCCC[C@@H](C(=O)N[C@@H](CC(=O)O)c1ccc2c(c1)OCO2)n1cccc(Cc2ccccc2)c1=O [(3S)-3-(1,3-benzodioxol-5-yl)-3-({(2S)-2-[2-oxo-3-(phenylmethyl)-1(2H)-pyridinyl]hexanoyl}amino)propanoic acid]		IC50 (Table 3): 4 nM
CCCCC(C(=O)N[C@@H](CC(=O)O)c1cc(C)c(OC)cc1C)n1cc(C)cc(Cc2ccccc2)c1=O (stereo partly drawn) [(3S)-3-{[2-(3-benzyl-5-methyl-2-oxopyridin-1(2H)-yl)hexanoyl]amino}-3-(4-methoxy-2,5-dimethylphenyl)propanoic acid]	283	
CCCCC(C(=O)N[C@@H](CC(=O)O)c1cccc(-c2ccccc2)c1)n1cc(C)cc(Cc2ccccc2)c1=O (stereo partly drawn) [(3S)-3-[1,1′-biphenyl]-3-yl-3-({2-[5-methyl-2-oxo-3-(phenylmethyl)-1(2H)-pyridinyl]hexanoyl}amino)propanoic acid]	250	
CCCCC(C(=O)N[C@@H](CC(=O)O)c1cccc(OC(C)C)c1)n1ccc(CCc2ccccc2)cc1=O (stereo partly drawn) [(3S)-3-(3-isopropoxyphenyl)-3-({2-[2-oxo-4-(2-phenylethyl)pyridin-1(2H)-yl]hexanoyl}amino)propanoic acid]	95	
CCCCC(C(=O)N[C@@H](CC(=O)O)c1ccc2c(c1)OCO2)n1c(=O)c(Cc2ccccc2)cc2ccccc21 (stereo partly drawn) [(3S)-3-(1,3-benzodioxol-5-yl)-3-({2-[2-oxo-3-(phenylmethyl)-1(2H)-quinolinyl]hexanoyl}amino)propanoic acid]		IC50 (Table 3): 2000 nM
CCCCC(C(=O)N[C@@H](CC(=O)O)c1ccc2c(c1)OCO2)n1c(=O)n(Cc2ccccc2)c2ccccc21 (stereo partly drawn) [(3S)-3-(1,3-benzodioxol-5-yl)-3-({2-[2-oxo-3-(phenylmethyl)-2,3-dihydro-1H-benzimidazol-1-yl]hexanoyl}amino)propanoic acid]		IC50 (Table 3): 70 nM
CCCCC(C(=O)N[C@H](Cc1ccccc1)C(=O)O)n1cc(C)cc(Cc2ccccc2)c1=O (stereo partly drawn) [(2R)-2-({2-[5-methyl-2-oxo-3-(phenylmethyl)-1(2H)-pyridinyl]hexanoyl}amino)-3-phenylpropanoic acid]	5000	
CCCCC(C(=O)N[C@@H](CC(=O)O)c1cccc(OCCC)c1)n1cc(C)cc(Cc2ccccc2)c1=O (stereo partly drawn) [(3S)-3-{[2-(3-benzyl-5-methyl-2-oxopyridin-1(2H)-yl)hexanoyl]amino}-3-(3-propoxyphenyl)propanoic acid]	10	
CCCCC(C(=O)N[C@@H](CC(=O)O)c1ccc(OC)c(C)c1C)n1cccc(Cc2ccccc2)c1=O (stereo partly drawn) [(3S)-3-{[2-(3-benzyl-2-oxopyridin-1(2H)-yl)hexanoyl]amino}-3-(4-methoxy-2,3-dimethylphenyl)propanoic acid]	300	
CCCCC(C(=O)N[C@@H](CC(=O)O)c1cccc(OC(C)C)c1)n1cc(C)cc(Cc2ccccc2C)c1=O (stereo partly drawn) [(3S)-3-{3-[(1-methylethyl)oxy]phenyl}-3-({2-[5-methyl-3-[(2-methylphenyl)methyl]-2-oxo-1(2H)-pyridinyl]hexanoyl}amino)propanoic acid]	5	
CCCCC(C(=O)N[C@@H](CC(=O)O)c1ccc(C)cc1)n1cc(C)cc(Cc2ccccc2)c1=O (mixture of isomers) [Compound 13, (3S)-3-((2R,S)-2-(3-benzyl-5-methyl-2-oxo-1(2H)-pyridinyl)hexanoylamino)-3-(4-methylphenyl)propanoic acid]		IC50 (Table 1): 70 nM
CCCCC(C(=O)N[C@@H](CC(=O)O)c1ccc(C)cc1)n1cc(C)cc(Cc2ccccc2Cl)c1=O (stereo partly drawn) [(3S)-3-({2-[3-(2-chlorobenzyl)-5-methyl-2-oxopyridin-1(2H)-yl]hexanoyl}amino)-3-(4-methylphenyl)propanoic acid]	15	
CCCCC(C(=O)N[C@@H](CC(=O)O)c1ccc(C)cc1)n1cc(C)cc(Cc2ccc3ccccc3c2)c1=O (stereo partly drawn) [(3S)-3-({2-[5-methyl-3-(2-naphthalenylmethyl)-2-oxo-1(2H)-pyridinyl]hexanoyl}amino)-3-(4-methylphenyl)propanoic acid]	400	
CCCCC(C(=O)N[C@@H](CC(=O)O)c1cccc(OC(C)C)c1)n1cc(C)cc(Cc2ccccc2Cl)c1=O (stereo partly drawn) [(3S)-3-({2-[3-(2-chlorobenzyl)-5-methyl-2-oxopyridin-1(2H)-yl]hexanoyl}amino)-3-(3-isopropoxyphenyl)propanoic acid]	5	
CCCCC(C(=O)N[C@@H](CC(=O)O)c1ccc2c(c1)OCO2)n1cc(C)cc(Cc2cccc(Cl)c2)c1=O (mixture of isomers) [Compound 19, (3S)-3-(1,3-benzodioxol-5-yl)-3-((2R,S)-2-(3-(3-chlorobenzyl)-5-methyl-2-oxo-1(2H)-pyridinyl)hexanoylamino)propanoic acid]		IC50 (Table 1): 6 nM
CCCCC(C(=O)N[C@@H](CC(=O)O)c1ccccc1)n1cc(C)cc(Cc2cccc3ccccc23)c1=O (stereo partly drawn) [(3S)-3-({2-[5-methyl-3-(1-naphthalenylmethyl)-2-oxo-1(2H)-pyridinyl]hexanoyl}amino)-3-phenylpropanoic acid]	350	
CCCC[C@@H](C(=O)N[C@@H](CC(=O)O)c1ccc2c(c1)OCO2)N1CCC(c2cccs2)N(Cc2cccs2)C1=O (stereo partly drawn) [(3S)-3-(1,3-benzodioxol-5-yl)-3-(((2S)-2-(2-oxo-4-(2-thienyl)-3-(2-thienylmethyl)tetrahydro-1(2H)-pyrimidinyl)hexanoyl)amino)propanoic acid]		inhibition at 100 µM (Ramos, Table 2, compound at a concentration of 100 μM, read-out: % A (percent inhibition of cell adhesion)): 100%; IC50 (Table 2): 50 nM
CCCCC(C(=O)N[C@@H](CC(=O)O)c1ccc(OC)c(OCC)c1)n1cc(C)cc(Cc2ccccc2)c1=O (stereo partly drawn) [(3S)-3-{[2-(3-benzyl-5-methyl-2-oxopyridin-1(2H)-yl)hexanoyl]amino}-3-(3-ethoxy-4-methoxyphenyl)propanoic acid]	4	
